As usually defined, the pIC50 is −log10 of the IC50, conventionally taken in molar units. The low end stands for a high IC50, the high end for a low IC50. As usually defined, the koff is the rate constant with which the complex falls apart. Lower therefore signals slow dissociation.

For experiment [1], the target named is Beta-lactamase TEM-3 (Escherichia coli). Kind of experiment: Inhibitory activity against Escherichia coli TEM-3 Beta-lactamase.
The target of another experiment is Beta-lactamase (Pseudomonas aeruginosa (strain ATCC 15692 / DSM 22644 / CIP 104116 / JCM 14847 / LMG 12228 / 1C / PRS 101 / PAO1), UniProt P24735). Kind of experiment: Deacylation of 18SH Beta-lactamase of Pseudomonas aeruginosa.
Sequence of Beta-lactamase (P24735 whole entry): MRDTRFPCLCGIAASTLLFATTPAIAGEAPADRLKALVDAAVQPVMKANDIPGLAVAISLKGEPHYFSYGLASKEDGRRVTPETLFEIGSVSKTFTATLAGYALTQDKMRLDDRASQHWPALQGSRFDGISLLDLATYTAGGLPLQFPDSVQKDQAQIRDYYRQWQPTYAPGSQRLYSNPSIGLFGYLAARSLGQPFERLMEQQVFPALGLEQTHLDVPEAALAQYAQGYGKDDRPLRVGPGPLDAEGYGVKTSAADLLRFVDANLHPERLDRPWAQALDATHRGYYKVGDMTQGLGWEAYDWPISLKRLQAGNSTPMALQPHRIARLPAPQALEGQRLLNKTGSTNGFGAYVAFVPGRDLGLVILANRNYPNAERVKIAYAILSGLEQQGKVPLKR

pIC50: −log10 of the molar value. Bounds are passed on as bounds.

`O=C(CNc1ccc(O)cc1)N1CC[C@@H]2[C@H]1C(=O)N2S(=O)(=O)O` [Sodium; (1S,5R)-2-[2-(4-hydroxy-phenylamino)-acetyl]-7-oxo-2,6-diaza-bicyclo[3.2.0]heptane-6-sulfonate] gave a pIC50 in experiment [1] of 4.10.

`NC(=O)c1ccc(NC(=O)N2CC[C@@H]3[C@H]2C(=O)N3S(=O)(=O)O)cc1` [Sodium; (1S,5R)-2-(4-carbamoyl-phenylcarbamoyl)-7-oxo-2,6-diaza-bicyclo[3.2.0]heptane-6-sulfonate] showed a pIC50 in experiment [1] of under 4.00.

`O=C(OCc1ccccc1)N1CC[C@@H]2[C@H]1C(=O)N2S(=O)(=O)O` [Sodium; (1S,5R)-2-benzyloxycarbonyl-7-oxo-2,6-diaza-bicyclo[3.2.0]heptane-6-sulfonate] had a pIC50 in experiment [1] of under 4.00.

In turn, `O=C(OCc1ccccc1)N1C[C@H](F)[C@@H]2[C@H]1C(=O)N2S(=O)(=O)O` [Sodium; (1S,4S,5S)-2-benzyloxycarbonyl-4-fluoro-7-oxo-2,6-diaza-bicyclo[3.2.0]heptane-6-sulfonate] had a pIC50 in experiment [1] of 6.29.

In experiment [1], `Cn1ccnc1SCC(=O)N1CC[C@@H]2[C@H]1C(=O)N2S(=O)(=O)O` [Sodium; (1S,5R)-2-[2-(1-methyl-1H-imidazol-2-ylsulfanyl)-acetyl]-7-oxo-2,6-diaza-bicyclo[3.2.0]heptane-6-sulfonate] showed a pIC50 of under 4.00.

In experiment [1], `Cn1nnnc1SCC(=O)N1CC[C@@H]2[C@H]1C(=O)N2S(=O)(=O)O` [Sodium; (1S,5R)-2-[2-(1-methyl-1H-tetrazol-5-ylsulfanyl)-acetyl]-7-oxo-2,6-diaza-bicyclo[3.2.0]heptane-6-sulfonate] gave a pIC50 of under 4.00.

Consider `NC(=O)Nc1ccc(NC(=O)N2CC[C@@H]3[C@H]2C(=O)N3S(=O)(=O)O)cc1` [Sodium; (1S,5R)-7-oxo-2-(4-ureido-phenylcarbamoyl)-2,6-diaza-bicyclo[3.2.0]heptane-6-sulfonate], for which the negative logarithm of the IC50 (pIC50) in experiment [1] is 4.00.

For the compound `CC(C)(C)OC(=O)N1CC[C@@H]2[C@H]1C(=O)N2S(=O)(=O)O` [Sodium; (1S,5R)-2-tert-butoxycarbonyl-7-oxo-2,6-diaza-bicyclo[3.2.0]heptane-6-sulfonate], at Beta-lactamase, the “koff” value was 0.000037 s⁻¹. The pIC50 in experiment [1] was under 4.00.

As to `Cc1nn(C)c(SCC(=O)N2CC[C@@H]3[C@H]2C(=O)N3S(=O)(=O)O)nc1=O` [Sodium; (1S,5R)-2-[2-(2,6-dimethyl-5-oxo-2,5-dihydro-[1,2,4]triazin-3-ylsulfanyl)-acetyl]-7-oxo-2,6-diaza-bicyclo[3.2.0]heptane-6-sulfonate], the pIC50 in experiment [1] is under 4.00.

Regarding `O=C1NCC[C@@H]1NC(=O)N1CC[C@@H]2[C@H]1C(=O)N2S(=O)(=O)O` [Sodium; (1S,5R)-7-oxo-2-((S)-2-oxo-pyrrolidin-3-ylcarbamoyl)-2,6-diaza-bicyclo[3.2.0]heptane-6-sulfonate], the pIC50 in experiment [1] is under 4.00.

For `NC(=O)c1ccc[n+](CC(=O)N2CC[C@@H]3[C@H]2C(=O)N3S(=O)(=O)[O-])c1`, the pIC50 in experiment [1] was 6.15.

For `NC(=O)/C=C1\CN(C(=O)OCc2ccccc2)[C@@H]2C(=O)N(S(=O)(=O)O)[C@H]12` [Sodium; (1S,5R)-2-benzyloxycarbonyl-4-[1-carbamoyl-meth-(E)-ylidene]-7-oxo-2,6-diaza-bicyclo[3.2.0]heptane-6-sulfonate], the pIC50 in experiment [1] is 7.51.

In the case of `O=C(NC1CCNCC1)N1CC[C@@H]2[C@H]1C(=O)N2S(=O)(=O)O` [Sodium; (1S,5R)-7-oxo-2-(piperidin-4-ylcarbamoyl)-2,6-diaza-bicyclo[3.2.0]heptane-6-sulfonate], the “koff” value on Beta-lactamase was 0.0012 s⁻¹. The compound also showed a pIC50 in experiment [1] of under 4.00.

Consider `Cn1cnnc1SCC(=O)N1CC[C@@H]2[C@H]1C(=O)N2S(=O)(=O)O` [Sodium; (1S,5R)-2-[2-(4-methyl-4H-[1,2,4]triazol-3-ylsulfanyl)-acetyl]-7-oxo-2,6-diaza-bicyclo[3.2.0]heptane-6-sulfonate], for which the pIC50 in experiment [1] was under 4.00.

In turn, `Cn1nnnc1S[C@@H]1CN(C(=O)OCc2ccccc2)[C@@H]2C(=O)N(S(=O)(=O)O)[C@@H]21` [Sodium; (1S,4R,5S)-2-benzyloxycarbonyl-4-(1-methyl-1H-tetrazol-5-ylsulfanyl)-7-oxo-2,6-diaza-bicyclo[3.2.0]heptane-6-sulfonate] showed a pIC50 in experiment [1] of 7.46.

Turning to `NC(C(=O)N1CC[C@@H]2[C@H]1C(=O)N2S(=O)(=O)O)c1ccc(O)cc1` (stereo partly drawn) [Sodium; (1S,5R)-2-[2-amino-2-(4-hydroxy-phenyl)-acetyl]-7-oxo-2,6-diaza-bicyclo[3.2.0]heptane-6-sulfonate], the pIC50 in experiment [1] is under 4.00.

Take `CC(C)(C)OC(=O)N1CCC[C@@H]2[C@H]1C(=O)N2S(=O)(=O)O` [Sodium; (1S,6R)-2-tert-butoxycarbonyl-8-oxo-2,7-diaza-bicyclo[4.2.0]octane-7-sulfonate]: the “koff” value at Beta-lactamase was determined as 0.0007 s⁻¹. For the same compound, the pIC50 in experiment [1] is under 4.00.

For `NC(=O)c1cccc(NC(=O)N2CC[C@@H]3[C@H]2C(=O)N3S(=O)(=O)O)c1` [Sodium; (1S,5R)-2-(3-carbamoyl-phenylcarbamoyl)-7-oxo-2,6-diaza-bicyclo[3.2.0]heptane-6-sulfonate], the pIC50 in experiment [1] is 5.40.

For `O=C(Nc1ccc(O)cc1)N1CC[C@@H]2[C@H]1C(=O)N2S(=O)(=O)O` [Sodium; (1S,5R)-2-(4-hydroxy-phenylcarbamoyl)-7-oxo-2,6-diaza-bicyclo[3.2.0]heptane-6-sulfonate], the pIC50 in experiment [1] was under 4.00.

(Values after BindingDB's records for doi:10.1021/jm980023c (F. Hoffmann-La Roche, 1998).)
